Measurements: paper PMC8894198, “Biosynthetic Microcin J25 Exerts Strong Antibacterial, Anti-Inflammatory Activities, Low Cytotoxicity Without Increasing Drug-Resistance to Bacteria Target” (Frontiers in Immunology, 2022)
≈ marks a conversion by molar mass, not a printed value. Where a SMILES comes first, the peptide text is derived from it. Bridges are numbered along the chain shown (N, C = ends).

Key:
E. coli K88 [1] = experiment: MIC variability (cross-resistance) after 5 days at sub-MIC; type: cell-based; settings: bacterial cells treated with MccJ25 (0.25 × MIC) for 5 days
Experimental: A 1:100 dilution of the bacteria was performed daily in the above MHB. Aliquots of the culture medium were used daily for 5 days thereafter to determine the MICs of ampicillin, tetracycline, aureomycin, and kanamycin. This study was performed based on our previous study ([29]).

E. coli ATCC25922 = experiment: MIC/MBC broth dilution, standard strain; type: cell-based
Experimental: (§1) The minimum inhibitory concentration (MIC) refers to the lowest concentration that can produce a significant hindrance to bacterial growth in a drug sensitivity test by adopting a broth dilution, with certain refinements and modifications based on the previous description ([25], [26]). In short, MccJ25 was dissolved in sterilized distilled water (SDW), serial 2-fold dilutions were prepared in Mueller-Hinton broth (MHB) through a 96-well microtiter plate, and the final concentration of MccJ25 was maintained in the range of 0.003125 to 256 μg/mL. Then, 2 μL of standard and clinically relevant overnight broth cultures of bacteria were inoculated into each well at a concentration of 5 × 10^6 CFU/mL. Microtiter plates were incubated at 37°C for one full day. Two groups were set up: positive (medium with inoculum) and negative (medium only) controls. The minimum bactericidal concentration (MBC) was measured in LB medium and refers to the first drug dilution value at which the initial bacterial concentration was reduced by 99.99%. The final analysis was determined by the results of three replicated and independent experiments. To further assess and clarify the antimicrobial activity of MccJ25, the protective ability against E. coli adhesion, live/dead assay, and killing curve were performed, the detailed methods were provided in Supplementary Materials .

E. coli CVCC1515 = experiment: MIC/MBC broth dilution, standard strain; type: cell-based
Experimental: as §1

[2] = system: Salmonella enteritidis CMCC50336; experiment: MIC/MBC broth dilution, standard strain; type: cell-based
Experimental: as §1

E. coli 1499 = experiment: MIC/MBC broth dilution, standard strain; type: cell-based
Experimental: as §1

[3] = system: Shigella flexneri CMCC51571; experiment: MIC/MBC broth dilution, standard strain; type: cell-based; settings: LB medium, 99.99% reduction; three independent experiments
Experimental: as §1

E. coli K88 [4] = type: cell-based; settings: sub-MIC levels, 25-d passage period; six biological replicates
Experimental: To quantify the production status of the bacteria, the bacterial density was measured after incubating for 24 h. Cultures with the second highest concentration allowed to grow (OD600 ≥ 2) were diluted 1:100 with MccJ25 MHB at different concentrations than those described above. Cultures that grew above the indicated MIC levels were plated on LB agar plates, and their MIC levels were determined by the broth macrodilution method.

E. coli K88 [5] = system: E. coli K88
Experimental: The resistance of MccJ25 to pepsin, trypsin and chymotrypsin was evaluated based on previous studies ([26]), with minor modifications. E. coli K88 cells were prepared (approximately 1 × 10^7 CFU/mL), and 1 mL of the bacterial suspension and MccJ25 were transferred into 9 mL of medium. For the control, MccJ25 was not added. LB agar inoculated with E. coli K88 cells (~10^5 viable cells/mL) was poured onto a plate containing an Oxford cup to form individual wells. Then, 2 and 4 h MccJ25 (1 × MIC) previously subjected to different treatments were added to the wells. The agar overlay was incubated overnight at 37°C, and the diameter of the growth inhibition zone was measured.
The simulated gastric fluid (SGF) and simulated intestinal fluid (SIF) were mainly based on the relevant contents of the Chinese Pharmacopoeia as described previously ([26]). SGF was configurated with 10 mg/mL pepsin, 0.03 M NaCl was used to blend the pH to 1.5, while SIF was configured with 10 mg/mL trypsin, 0.05 M KH2PO4 was used to blended pH as 7. SGF and SIF were then measured separately, and the antimicrobial activity of MccJ25 in serum was determined. E. coli K88 cells were grown in MHB (Difco Laboratories, Detroit, MI, USA). In short, 1 mL of the bacterial suspension and MccJ25 were transferred into 9 mL of medium. The control group was as follows: no MccJ25 was added to it. E. coli K88 cells with a live cell count maintained at approximately 10^5 cells per milliliter were inoculated on LB agar, which was then poured into plates equipped with Oxford cups, thus forming wells. Then, MccJ25 (1 × MIC) previously treated with SGF, SIF and serum for 2, 4, and 6 h was added to these wells. One of the agar substances covering the wells needs to be incubated overnight at 37°C, and finally, the size of its growth inhibition area, i.e., the diameter, needs to be determined.

E. coli K88 [6] = type: cell-based; settings: sublethal concentrations 0.25 × and 0.5 × MIC
Experimental: Mutation rates were based on rifampicin and refined ([28], [29]). Overnight cultures of E. coli K88 were diluted in 50 mL of LB broth at a ratio of 1:10,000 and grown for 3.5 h at 37°C. […] Eleven 1-mL replicates of each treatment group were grown at 37°C for 24 h. These cultures were then serially diluted and plated on LB agar plates containing 100 μg/mL rifampicin. Afterwards, plates were incubated at 37°C for 48 h. Single colonies on the plates were counted to determine CFU/mL. Mutagenesis rates were calculated using the bz-rates-mutation rate calculator (http://www.lcqb.upmc.fr/bzrates).

[7] = system: E. coli K88 on IPEC-1 cells; experiment: Protection against E. coli K88 adhesion and colonization of IPEC-1 cells; type: cell-based; settings: 1, 2, 4, 8 × MIC for 3 h, then E. coli K88 for 2 h; plate counts; 6 biological replicates
Experimental: Capacity of against E. coli K88 adhesion and colonization of IPEC-1 cells was evaluated. IPEC-1 cells were cultured with or without MccJ25 for 3 h in the absence or presence of E. coli K88 for 2 h. The E. coli K88 adhesion and colonization in the IPEC-1 cells was determined. E. coli K88 (mean CFU/ml ± SEMs) were determined by plate counts, and determined from three individual experiments.
Figure S1. MccJ25 enhances intestinal epithelial cell to against E. coli K88 infection. […] IPEC-1 cells were cultured in the presence or absence of 1, 2, 4, 8 × MIC of MccJ25 for 3 h, then cells were treated with E. coli K88 for 2 h. The numbers of E. coli K88 were counted. E. coli K88 (mean CFU/ml ± SEMs) were determined by plate counts from 6 biological replicates. **P ≤ 0.01, ***P ≤ 0.001.

[8] = LB medium, 99.99% reduction, three independent experiments
[9] = broth dilution in MHB, 37°C, one day, three independent experiments

Question: Which results are given for `CC[C@H](C)[C@H](NC(=O)CNC(=O)[C@@H](NC(=O)[C@H](Cc1ccccc1)NC(=O)[C@H](Cc1ccc(O)cc1)NC(=O)[C@@H]1CCC(=O)NCC(=O)NCC(=O)N[C@@H](C)C(=O)NCC(=O)N[C@@H](Cc2c[nH]cn2)C(=O)N[C@@H](C(C)C)C(=O)N2CCC[C@H]2C(=O)N1)C(C)C)C(=O)NCC(=O)N[C@H](C(=O)N1CCC[C@H]1C(=O)N[C@H](C(=O)N[C@@H](CO)C(=O)N[C@@H](Cc1ccccc1)C(=O)N[C@@H](Cc1ccc(O)cc1)C(=O)NCC(=O)O)[C@@H](C)CC)[C@@H](C)O` [MccJ25, microcin J25] (GGAGHVPEYFVGIGTPISFYG-OH; lactam N-8 (inferred); C-terminus assumed)?
Answer: change in the MICs of ciprofloxacin, ampicillin, tetracycline and kanamycin (E. coli K88 [1]): no changes were observed; MBC (E. coli ATCC25922; [8]): 0.500 µg/mL (≈ 0.237 µM); MIC (E. coli ATCC25922; [9]): 0.125 µg/mL (≈ 0.0593 µM); MIC/MBC (E. coli ATCC25922; ratio): 0.250; MBC (E. coli CVCC1515; [8]): 2.000 µg/mL (≈ 0.949 µM); MIC (E. coli CVCC1515; [9]): 0.500 µg/mL (≈ 0.237 µM); MIC/MBC (E. coli CVCC1515; ratio): 0.250; MBC [2, 8]: 4.000 µg/mL (≈ 1.9 µM); MIC [2, 9]: 2.000 µg/mL (≈ 0.949 µM); MIC/MBC ([2]; ratio): 0.500; MBC (E. coli 1499; [8]): 1.000 µg/mL (≈ 0.475 µM); MIC (E. coli 1499; [9]): 0.400 µg/mL (≈ 0.19 µM); MIC/MBC (E. coli 1499; ratio): 0.400; MBC [3]: 0.500 µg/mL (≈ 0.237 µM); resistant mutants during serial passage (E. coli K88 [4]): No resistant mutants were detected; growth inhibition zone after heat treatment (E. coli K88 [5]; MccJ25 1 × MIC pre-treated at 121°C for 20 minutes, Oxford cup, LB agar, overnight 37°C, n = 6): greater than 22 mm; growth inhibition zone after pH treatment (E. coli K88 [5]; MccJ25 1 × MIC pre-treated at pH 2.0 to 9.0 for 2 h, Oxford cup, LB agar, overnight 37°C, n = 6): greater than 22 mm; antimicrobial activity after SIF, SGF or serum treatment (E. coli K88 [5]; MccJ25 1 × MIC pre-treated with SGF, SIF and serum for 2, 4 and 6 h, inhibition zone): essentially the same as that of MccJ25 subjected to a single treatment; antimicrobial activity after protease challenge (E. coli K88 [5]; MccJ25 1 × MIC pre-treated with pepsin, trypsin or chymotrypsin for 2 and 4 h, inhibition zone): retained; mutation rate compared to the control (E. coli K88 [6]): did not show a greater difference in mutation rate compared to the control; E. coli K88 adhesion and colonization [7]: significantly protects
